Assay results from patent US20240247074A1, “THERAPEUTIC STRATEGY FOR NON-SMALL CELL LUNG CANCER AND OTHER CANCERS” (New York University, priority 2023, published 2024).

Experiments:
[1] = system: CD38 expression; experiment: FACS analysis of CD38 expression in LKB1 mutant tumors after EP300 inhibitor treatment; format: cell-based; conditions: LKB1 mutant lung cancer tumors, FIG. 6A, 6B
From the text: (§1) FIG. 6. EP300 inhibition suppresses LKB1 mutant tumor progression. (A), EP300 inhibitors CCS1477 and A485 suppresses CD38 expression in LKB1 mutant tumors. (B), Representative FACS analysis of CD38 expression after drug treatment. (C), Tumor volume changes of KL tumors after indicated EP300 inhibitors treatment. (D). Tumor growth curve of KL tumors treated with CCS1477 or A485.
(§2) Since LKB1/SIK suppresses CD38 expression through CTRC/EP300/CREB complex, we further tested inhibition of CD38 via EP300 inhibitors, including CCS1477 and A485, in LKB1 mutant lung cancer tumors.

[2] = system: KL tumors (LKB1 mutant lung cancer tumors); experiment: KL tumor growth after EP300 inhibitor treatment; format: in vivo; conditions: FIG. 6C, 6D
From the text: as §1, §2

[3] = system: CD38 expression; experiment: Flow cytometric analysis of CD38 expression after SIK inhibitor treatment in LKB1 WT mouse cancer cell lines; format: cell-based; conditions: LKB1 WT mouse lung cancer (KPC), colon cancer (CT26, MC38) and pancreatic cancer (KP1) lines; flow cytometry; FIG. 3
From the text: FIG. 3. SIK inhibitor increases upregulation of CD38 in LKB1 wildtype tumors. Flow cytometric analysis of CD38 expression changes after SIK inhibitor YKL-05-099 treatment in lung cancer (KPC) (A), and colon cancer (CT26, MC38) or pancreatic cancer (KP1) lines (B) at the indicated time points and concentration.
In line with the results of the LKB1 rescue studies, CRISPR-mediated knockout of Lkb1 in murine KP NSCLC cells led to increased cell surface expression of CD38 (FIG. 2A, 2B). We subsequently tested the impact of knockout of Sik1, Sik2 and Sik3, alone or in combination. We observed prominent increases in CD38 expression at the cell surface in KP cells upon inactivation of Sik1 or of all three SIK family members, but not to the level of CD38 in KP sgLkb1 cells (FIG. 2A, 2B). Without intending to be constrained by any particular theory, it is considered this indicates other factors other than SIK1/2/3 downstream of LKB1, might also contribute to the suppression of CD38 expression.

[4] = system: A549 xenograft tumor; experiment: A549 xenograft tumor growth in nu/nu mice; format: in vivo, mouse; conditions: LKB1 mutant A549 xenograft, 12.5 mg/kg once per week from about 100 mm^3, vs hIgG1, FIG. 5
Method: (§3) FIG. 5. Daratumumab induces killing of CD38 positive lung cancer. […] A549 (A-C) or HCC44 (D-F) xenograft tumor growth in response to daratumumab treatment. For each mouse, 3×10^6 A549 cells (A) or 5×10^5 HCC44 (D) were implanted into nu/nu mice subcutaneously. Daratumumab or hIgG1 (12.5 mg/kg, once per week) was dosed when tumor size reached 100 mm^3. Growth curve of A549 cells (A) or HCC44 (D) after daratumumab treatment. B-C, Individual mouse tumor growth curve for A549 xenografts treated with either hIgG1 (B) or Daratumumab (C) shown in panel A. (E-F), Individual mouse tumor growth curve for HCC44 xenograft treated with either hIgG1 (E) or Daratumumab (F) shown in panel D.
(§4) To study the effects of daratumumab in vivo, we implanted the LKB1 mutant A549 and HCC44 cell lines into athymic nude (nu/nu) mice to generate tumor xenografts. Daratumumab is a human IgG1, which can be recognized by mouse FcγRs on effector cells, resulting in ADCC induced between daratumumab with mouse NK cells through crosstalk, enabling evaluation of NK cell-mediated tumor cell killing in vivo. When tumors reached approximately 100 mm^3 in volume, mice were treated with daratumumab once weekly.

[5] = system: HCC44 xenograft tumor; experiment: HCC44 xenograft tumor growth in nu/nu mice; format: in vivo, mouse; conditions: LKB1 mutant HCC44 xenograft, 12.5 mg/kg once per week from about 100 mm^3, vs hIgG1, FIG. 5
Method: as §3, §4

Compound	CD38 expression on the tumor cells [1]	tumor growth in vivo [2]	CD38 expression change [3]	tumor growth [4]	tumor growth [5]
CO[C@H]1CC[C@H](n2c([C@@H]3CCCC(=O)N3c3ccc(F)c(F)c3)nc3cc(-c4c(C)noc4C)ccc32)CC1 [CCS1477]	decrease of CD38 expression	reduced tumor growth			
COc1ccc(N2C(=O)N(c3c(C)cccc3Cl)Cc3cnc(Nc4ccc(C5CCN(C)CC5)cc4OC)nc32)nc1 [YKL-05-099]			upregulated CD38		
CNC(=O)Nc1ccc2c(c1)CC[C@@]21OC(=O)N(CC(=O)N(Cc2ccc(F)cc2)[C@@H](C)C(F)(F)F)C1=O [A485]	decrease of CD38 expression	reduced tumor growth			
daratumumab: first approved antibody against CD38, a fully human IgG1-κ monoclonal antibody				significant reduction in tumor growth	significant reduction in tumor growth
